Drawing on publication PMC10004634 (PLOS ONE, 2023), this text covers remaining binding for four compounds.

Like-named read-outs stand apart in the source and are kept apart here.

Some targets named below: ERBB2 (Homo sapiens, UniProt P04626); KIT(V559D,T670I) (Homo sapiens, UniProt P10721, T670I/V559D); MAP3K1 (Homo sapiens, UniProt Q13233); NEK4 (Homo sapiens, UniProt P51957); PRKCQ (Homo sapiens, UniProt Q04759).
Holding throughout (assay): biochemical
What all share (design): KINOMEscan scanMAX competition binding, DNA-tagged kinases, qPCR read-out, percent control at 300 nM
On the technique in general: Quantitative PCR measures a nucleic acid by following its amplification.

A further experiment deals with T1, CDK11 (Homo sapiens, UniProt Q9BWU1).
T1 construct: gene CDK19

Experiment [1] concerns the target T2, JAK1(JH1domain-catalytic) (Homo sapiens, UniProt P23458).
T2 construct: JH1domain-catalytic

In another experiment the target is T3, LATS2 (Homo sapiens, UniProt Q9NRM7).
T3 sequence (Q9NRM7 1-1088): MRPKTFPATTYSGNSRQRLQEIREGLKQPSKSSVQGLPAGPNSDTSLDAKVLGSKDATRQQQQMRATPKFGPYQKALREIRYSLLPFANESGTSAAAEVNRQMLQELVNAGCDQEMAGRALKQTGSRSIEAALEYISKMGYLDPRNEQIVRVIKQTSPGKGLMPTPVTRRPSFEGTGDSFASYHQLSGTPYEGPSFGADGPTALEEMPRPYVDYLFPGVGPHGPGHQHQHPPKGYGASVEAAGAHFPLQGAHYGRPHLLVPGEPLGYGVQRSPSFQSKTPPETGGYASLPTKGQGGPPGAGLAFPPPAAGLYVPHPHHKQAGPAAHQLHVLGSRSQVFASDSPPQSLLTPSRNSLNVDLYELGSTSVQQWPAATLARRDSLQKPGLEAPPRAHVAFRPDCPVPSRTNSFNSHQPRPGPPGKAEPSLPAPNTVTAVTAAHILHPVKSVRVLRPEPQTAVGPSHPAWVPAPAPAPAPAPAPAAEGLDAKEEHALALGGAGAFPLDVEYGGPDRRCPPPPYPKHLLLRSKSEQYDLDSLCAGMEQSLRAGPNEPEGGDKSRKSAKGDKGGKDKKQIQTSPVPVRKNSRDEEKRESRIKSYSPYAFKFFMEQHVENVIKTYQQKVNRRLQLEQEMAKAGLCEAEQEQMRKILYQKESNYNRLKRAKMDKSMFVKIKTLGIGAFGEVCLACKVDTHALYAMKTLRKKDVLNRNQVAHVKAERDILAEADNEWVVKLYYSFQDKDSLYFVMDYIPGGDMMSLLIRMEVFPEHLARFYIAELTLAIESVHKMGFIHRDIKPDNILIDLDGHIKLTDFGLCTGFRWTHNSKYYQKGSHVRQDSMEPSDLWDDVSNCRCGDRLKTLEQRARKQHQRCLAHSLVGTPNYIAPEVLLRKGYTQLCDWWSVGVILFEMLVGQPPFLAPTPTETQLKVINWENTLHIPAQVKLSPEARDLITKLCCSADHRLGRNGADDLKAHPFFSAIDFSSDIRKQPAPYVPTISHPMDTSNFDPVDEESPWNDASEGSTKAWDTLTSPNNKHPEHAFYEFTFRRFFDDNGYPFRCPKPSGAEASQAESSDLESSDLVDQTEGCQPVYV

For the next experiment, the target named is T4, CDKL2 (Homo sapiens, UniProt Q92772).
T4 sequence (Q92772 1-493): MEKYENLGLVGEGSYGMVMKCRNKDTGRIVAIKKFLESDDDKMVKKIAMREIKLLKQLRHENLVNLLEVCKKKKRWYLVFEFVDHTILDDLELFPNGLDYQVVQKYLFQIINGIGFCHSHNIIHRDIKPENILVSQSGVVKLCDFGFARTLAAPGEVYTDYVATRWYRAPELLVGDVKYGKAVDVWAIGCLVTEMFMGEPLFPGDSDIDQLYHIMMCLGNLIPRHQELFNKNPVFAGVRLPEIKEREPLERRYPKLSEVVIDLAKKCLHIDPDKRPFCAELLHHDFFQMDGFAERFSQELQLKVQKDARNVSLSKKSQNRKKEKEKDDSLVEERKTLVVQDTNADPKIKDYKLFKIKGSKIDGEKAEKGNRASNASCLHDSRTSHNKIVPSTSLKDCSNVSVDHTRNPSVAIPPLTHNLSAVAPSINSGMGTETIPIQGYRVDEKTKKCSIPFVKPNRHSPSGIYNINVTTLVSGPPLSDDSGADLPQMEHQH

Another experiment has as its target T5, PRP4 (Homo sapiens, UniProt Q13523).
T5 construct: gene PRPF4B

The mark [2] stands for this setting: read-out: Percent control / Acalabrutinib.
Setting [3] is: read-out: Percent control / Ibrutinib.
[4] abbreviates: read-out: Percent control / Tirabrutinib.
The mark [5] stands for this setting: read-out: Percent control / Zanubrutinib.

Chain of NEK4 (P51957 whole entry): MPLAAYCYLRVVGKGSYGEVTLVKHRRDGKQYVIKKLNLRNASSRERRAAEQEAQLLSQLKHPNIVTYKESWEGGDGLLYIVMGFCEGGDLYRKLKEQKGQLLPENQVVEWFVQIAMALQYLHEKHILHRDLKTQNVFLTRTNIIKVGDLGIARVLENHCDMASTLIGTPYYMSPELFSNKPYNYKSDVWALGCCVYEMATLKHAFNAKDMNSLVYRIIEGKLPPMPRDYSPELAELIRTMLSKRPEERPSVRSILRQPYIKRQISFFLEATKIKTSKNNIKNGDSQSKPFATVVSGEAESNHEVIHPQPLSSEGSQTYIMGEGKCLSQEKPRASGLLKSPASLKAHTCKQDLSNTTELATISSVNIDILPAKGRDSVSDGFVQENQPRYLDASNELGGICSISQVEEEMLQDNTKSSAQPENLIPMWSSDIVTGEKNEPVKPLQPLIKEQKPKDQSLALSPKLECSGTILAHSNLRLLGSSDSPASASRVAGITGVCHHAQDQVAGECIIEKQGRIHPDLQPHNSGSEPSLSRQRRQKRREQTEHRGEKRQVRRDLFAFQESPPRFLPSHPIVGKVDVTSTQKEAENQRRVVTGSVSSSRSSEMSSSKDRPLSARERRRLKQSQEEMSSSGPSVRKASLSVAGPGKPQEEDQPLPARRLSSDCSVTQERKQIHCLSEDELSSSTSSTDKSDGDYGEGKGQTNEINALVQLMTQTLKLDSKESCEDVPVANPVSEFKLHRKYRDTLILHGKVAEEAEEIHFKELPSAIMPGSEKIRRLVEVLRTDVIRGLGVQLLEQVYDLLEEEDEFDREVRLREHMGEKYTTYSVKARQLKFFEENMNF
Chain of MAP3K1 (Q13233 whole entry): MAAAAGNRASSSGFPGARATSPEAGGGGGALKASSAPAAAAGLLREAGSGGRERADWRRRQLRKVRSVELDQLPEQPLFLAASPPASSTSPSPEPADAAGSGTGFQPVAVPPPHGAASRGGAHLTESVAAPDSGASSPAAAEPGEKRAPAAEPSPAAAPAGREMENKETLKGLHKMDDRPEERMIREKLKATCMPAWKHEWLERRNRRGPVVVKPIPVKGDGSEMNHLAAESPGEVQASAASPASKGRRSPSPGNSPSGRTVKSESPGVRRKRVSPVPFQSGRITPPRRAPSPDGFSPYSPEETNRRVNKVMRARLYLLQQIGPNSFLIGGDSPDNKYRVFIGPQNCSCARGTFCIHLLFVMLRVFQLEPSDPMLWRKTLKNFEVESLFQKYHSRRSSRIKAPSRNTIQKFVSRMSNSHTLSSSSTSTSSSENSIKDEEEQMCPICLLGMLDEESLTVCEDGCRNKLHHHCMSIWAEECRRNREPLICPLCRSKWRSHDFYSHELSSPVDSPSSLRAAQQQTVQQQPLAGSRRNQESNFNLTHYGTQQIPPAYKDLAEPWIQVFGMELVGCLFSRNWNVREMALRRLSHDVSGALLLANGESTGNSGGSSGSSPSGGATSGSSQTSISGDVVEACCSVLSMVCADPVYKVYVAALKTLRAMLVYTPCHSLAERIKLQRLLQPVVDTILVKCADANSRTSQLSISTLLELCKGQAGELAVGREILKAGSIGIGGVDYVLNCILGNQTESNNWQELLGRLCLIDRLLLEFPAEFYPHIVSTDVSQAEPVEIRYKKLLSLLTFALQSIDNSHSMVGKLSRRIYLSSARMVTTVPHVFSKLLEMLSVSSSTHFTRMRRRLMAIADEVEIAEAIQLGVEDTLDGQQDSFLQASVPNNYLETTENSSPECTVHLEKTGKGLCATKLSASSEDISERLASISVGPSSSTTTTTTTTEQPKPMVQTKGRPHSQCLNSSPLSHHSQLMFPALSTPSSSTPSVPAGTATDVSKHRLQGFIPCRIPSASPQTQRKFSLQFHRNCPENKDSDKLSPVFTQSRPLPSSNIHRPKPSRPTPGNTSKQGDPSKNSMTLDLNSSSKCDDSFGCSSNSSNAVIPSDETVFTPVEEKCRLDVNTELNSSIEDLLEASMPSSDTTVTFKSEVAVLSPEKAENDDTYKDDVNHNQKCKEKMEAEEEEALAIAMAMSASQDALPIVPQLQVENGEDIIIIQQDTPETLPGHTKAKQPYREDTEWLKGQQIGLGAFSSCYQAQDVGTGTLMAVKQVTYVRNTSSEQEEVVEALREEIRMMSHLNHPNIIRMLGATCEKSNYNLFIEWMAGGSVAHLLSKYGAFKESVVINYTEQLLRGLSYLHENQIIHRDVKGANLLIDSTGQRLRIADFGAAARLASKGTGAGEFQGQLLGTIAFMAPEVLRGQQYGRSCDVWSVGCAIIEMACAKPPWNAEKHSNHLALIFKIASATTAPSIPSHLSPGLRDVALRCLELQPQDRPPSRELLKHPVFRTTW
Chain of KIT(V559D,T670I) (P10721 whole entry V559D/T670I): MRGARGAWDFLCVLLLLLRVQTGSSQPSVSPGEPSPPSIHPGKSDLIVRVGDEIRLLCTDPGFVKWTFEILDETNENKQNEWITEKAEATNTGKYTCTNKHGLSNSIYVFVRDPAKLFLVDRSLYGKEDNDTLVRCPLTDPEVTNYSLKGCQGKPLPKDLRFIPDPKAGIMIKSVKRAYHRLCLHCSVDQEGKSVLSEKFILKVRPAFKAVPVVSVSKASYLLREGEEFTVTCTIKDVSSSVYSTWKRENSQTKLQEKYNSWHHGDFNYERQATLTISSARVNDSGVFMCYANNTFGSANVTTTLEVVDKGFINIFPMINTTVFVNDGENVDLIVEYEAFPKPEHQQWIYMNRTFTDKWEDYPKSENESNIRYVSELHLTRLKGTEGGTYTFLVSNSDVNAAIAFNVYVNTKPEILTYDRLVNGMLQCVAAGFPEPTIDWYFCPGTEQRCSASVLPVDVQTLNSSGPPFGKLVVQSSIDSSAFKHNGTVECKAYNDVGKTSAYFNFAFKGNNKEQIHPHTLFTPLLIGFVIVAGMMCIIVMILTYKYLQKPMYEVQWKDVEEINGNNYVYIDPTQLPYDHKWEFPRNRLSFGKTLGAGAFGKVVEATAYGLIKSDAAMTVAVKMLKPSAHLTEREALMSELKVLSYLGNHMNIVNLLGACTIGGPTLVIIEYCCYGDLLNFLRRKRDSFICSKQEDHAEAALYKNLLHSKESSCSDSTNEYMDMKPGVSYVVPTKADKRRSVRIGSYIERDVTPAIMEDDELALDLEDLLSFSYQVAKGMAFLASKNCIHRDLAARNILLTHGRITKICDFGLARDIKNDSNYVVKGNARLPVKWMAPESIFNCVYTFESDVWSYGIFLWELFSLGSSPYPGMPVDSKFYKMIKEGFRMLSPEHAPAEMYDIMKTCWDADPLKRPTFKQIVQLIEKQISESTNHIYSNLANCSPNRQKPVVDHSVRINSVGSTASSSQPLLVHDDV
T5 sequence (Q13523 whole entry): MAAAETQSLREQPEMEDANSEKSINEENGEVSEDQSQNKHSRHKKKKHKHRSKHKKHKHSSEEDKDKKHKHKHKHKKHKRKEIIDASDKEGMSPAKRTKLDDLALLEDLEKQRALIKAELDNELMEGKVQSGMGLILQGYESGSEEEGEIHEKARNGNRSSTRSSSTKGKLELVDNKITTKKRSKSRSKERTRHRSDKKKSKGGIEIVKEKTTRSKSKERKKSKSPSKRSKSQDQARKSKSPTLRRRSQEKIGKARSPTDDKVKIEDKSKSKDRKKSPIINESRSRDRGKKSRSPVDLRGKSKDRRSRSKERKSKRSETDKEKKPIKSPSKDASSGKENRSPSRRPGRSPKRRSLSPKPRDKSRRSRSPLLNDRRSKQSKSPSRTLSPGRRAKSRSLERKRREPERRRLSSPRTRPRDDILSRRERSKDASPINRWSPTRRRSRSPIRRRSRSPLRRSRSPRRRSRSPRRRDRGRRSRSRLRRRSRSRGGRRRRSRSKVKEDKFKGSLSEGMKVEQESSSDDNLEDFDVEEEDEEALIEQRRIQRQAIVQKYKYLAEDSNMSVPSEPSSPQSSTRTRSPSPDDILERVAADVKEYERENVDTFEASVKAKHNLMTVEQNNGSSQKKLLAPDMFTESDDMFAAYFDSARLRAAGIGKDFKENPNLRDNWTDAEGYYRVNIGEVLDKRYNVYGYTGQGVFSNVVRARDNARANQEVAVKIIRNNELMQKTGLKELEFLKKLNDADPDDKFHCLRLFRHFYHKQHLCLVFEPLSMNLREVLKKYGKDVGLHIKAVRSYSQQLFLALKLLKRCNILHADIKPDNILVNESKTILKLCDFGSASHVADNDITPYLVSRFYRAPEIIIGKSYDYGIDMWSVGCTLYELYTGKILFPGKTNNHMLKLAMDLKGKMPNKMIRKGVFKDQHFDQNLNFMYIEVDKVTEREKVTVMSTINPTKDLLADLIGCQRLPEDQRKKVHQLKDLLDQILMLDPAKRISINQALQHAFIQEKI
Chain of PRKCQ (Q04759 whole entry): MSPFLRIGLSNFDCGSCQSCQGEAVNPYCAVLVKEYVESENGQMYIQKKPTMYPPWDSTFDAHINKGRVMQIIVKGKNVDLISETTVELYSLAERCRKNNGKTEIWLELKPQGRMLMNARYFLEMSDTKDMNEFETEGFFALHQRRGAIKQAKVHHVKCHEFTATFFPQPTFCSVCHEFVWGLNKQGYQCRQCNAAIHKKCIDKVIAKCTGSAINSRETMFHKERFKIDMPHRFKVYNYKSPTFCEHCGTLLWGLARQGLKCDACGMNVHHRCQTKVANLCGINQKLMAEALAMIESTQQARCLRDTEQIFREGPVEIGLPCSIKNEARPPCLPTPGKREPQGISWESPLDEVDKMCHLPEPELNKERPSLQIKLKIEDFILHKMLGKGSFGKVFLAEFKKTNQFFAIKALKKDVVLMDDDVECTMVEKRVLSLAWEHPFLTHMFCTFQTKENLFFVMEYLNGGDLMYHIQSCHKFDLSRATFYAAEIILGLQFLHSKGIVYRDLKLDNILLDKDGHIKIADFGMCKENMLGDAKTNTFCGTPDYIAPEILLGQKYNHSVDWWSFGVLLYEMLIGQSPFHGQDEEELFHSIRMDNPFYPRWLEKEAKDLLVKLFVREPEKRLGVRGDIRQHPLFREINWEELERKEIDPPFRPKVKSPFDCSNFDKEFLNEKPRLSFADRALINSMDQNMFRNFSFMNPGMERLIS

For the compound `CC#CC(=O)N1CCC[C@H]1c1nc(-c2ccc(C(=O)Nc3ccccn3)cc2)c2c(N)nccn12` [Acalabrutinib], the remaining binding at 0.3 µM was 74% on CDK11 (setting [2]); 11% at ERBB2 (setting [2]); 64% in [1] (setting [2]); 78% at KIT(V559D,T670I) (setting [2]); 90% at LATS2 (setting [2]); 96% on MAP3K1 (setting [2]). Also, the remaining binding at 0.3 µM at NEK4 (setting [2]) stood at 88%; on PRKCQ (setting [2]), 84%.
`C=CC(=O)N1CCC[C@@H](n2nc(-c3ccc(Oc4ccccc4)cc3)c3c(N)ncnc32)C1` [Ibrutinib]: the remaining binding at 0.3 µM came to 81% at CDK11 (setting [3]), 99% at CDKL2 (setting [3]), 86% at MAP3K1 (setting [3]) and 96% at PRP4 (setting [3]).
For `CC#CC(=O)N1CC[C@@H](n2c(=O)n(-c3ccc(Oc4ccccc4)cc3)c3c(N)ncnc32)C1` [Tirabrutinib], the remaining binding at 0.3 µM on CDK11 (setting [4]) worked out at 93%; on CDKL2 (setting [4]), 84%; on ERBB2 (setting [4]) it was 36%; in [1] (setting [4]), 88%; at KIT(V559D,T670I) (setting [4]), 98%; at LATS2 (setting [4]) it was 92%. Further, the remaining binding at 0.3 µM at NEK4 (setting [4]) is 99%; on PRKCQ (setting [4]) it was 93%; on PRP4 (setting [4]), 99%.
As to `C=CC(=O)N1CCC([C@@H]2CCNc3c(C(N)=O)c(-c4ccc(Oc5ccccc5)cc4)nn32)CC1` [Zanubrutinib], the remaining binding at 0.3 µM on CDK11 (setting [5]) came out at 83%; on CDKL2 (setting [5]), 100%; at ERBB2 (setting [5]) it was 16%; in experiment [1] (setting [5]) it was 87%; at KIT(V559D,T670I) (setting [5]), 62%; at LATS2 (setting [5]), 82%. For the same compound, the remaining binding at 0.3 µM on MAP3K1 (setting [5]) came out at 84%; on NEK4 (setting [5]), 100%; at PRKCQ (setting [5]), 87%; at PRP4 (setting [5]), 100%.
